# Counter-ions that a name gives are not always drawn.
# Columns and labels:
# Assay type in all cases: biochemical
# [1] = system: T1, membrane-bound D-glucose dehydrogenase (GlcDH) from Arthrobacter globiformis C224; assay: single-substrate kinetics, Lineweaver-Burk; conditions: pH 5.0 (Table 5); general assay uses ferricyanide as electron acceptor in McIlvaine buffer, stated there as pH 3.0
# T1 construct: gene gcd; native, purified from membrane fraction of C224 (Triton X-114, precipitations, hydroxylapatite); 87 kDa, single SDS-PAGE band, no subunits
# Source text: single-substrate kinetics, Lineweaver-Burk on membrane-bound D-glucose dehydrogenase (GlcDH) from Arthrobacter globiformis […]
# [2] = system: T1, membrane-bound D-glucose dehydrogenase (GlcDH) from Arthrobacter globiformis C224; assay: dual-substrate initial velocity kinetics (ping-pong); conditions: artificial electron acceptor; glucose as co-substrate (5-80 mM), PMS 50-200 µM
# [3] = target: T1, membrane-bound D-glucose dehydrogenase (GlcDH) from Arthrobacter globiformis C224; assay: steady-state product inhibition kinetics, Lineweaver-Burk; conditions: competitive towards PMS; PMS varied at 33 mM glucose, gluconic acid 0-200 mM; read-out: inhibition constant
Km [1],SMILES,other results
460 ± 20 µM,OC[C@H]1OC(O)[C@H](O)[C@@H](O)[C@H]1O (stereo partly drawn) [D-galactose],
210 ± 10 µM,OC[C@H]1OC(O)[C@H](O)[C@@H](O)[C@@H]1O (stereo partly drawn) [D-glucose],
340 ± 20 µM,OC1OC[C@@H](O)[C@H](O)[C@H]1O (stereo partly drawn) [D-xylose],
,C[n+]1c2ccccc2nc2ccccc21 [N-methylphenazonium methyl sulfate],Km [2]: 400 µM
,O=C(O)[C@H](O)[C@@H](O)[C@H](O)[C@H](O)CO [gluconic acid],Ki [3]: 11.4 mM
590 ± 30 µM,OC[C@H]1O[C@H](O[C@H]2[C@H](O)[C@@H](O)C(O)O[C@@H]2CO)[C@H](O)[C@@H](O)[C@@H]1O (stereo partly drawn) [maltose],
